The results in this text go back to article PMC11893401, “Pharmacokinetics and pharmacodynamics of insulin lispro 25 versus the original preparation (Humalog®25) in Chinese healthy male volunteers” (Frontiers in Pharmacology, 2025).

For this series the following is noted: in vivo.

Procedure: Tolerability and safety were assessed by closely monitoring blood glucose levels and conducting other tests. All adverse events and severe adverse events (SAEs) were evaluated.
The safety of both formulations was evaluated through the assessment of laboratory examinations, 12-lead electrocardiogram, and vital signs.

As for “mixed protamine zinc recombinant human insulin lispro injection [listing 1 of 2 here]”, the Infusion site swelling was 0 Number of Subjects(%). To “mixed protamine zinc recombinant human insulin lispro injection [listing 2 of 2 here]” belongs 1(2.0) Number of Subjects(%).
